Tests used:
[1] = system: OPM-2 human multiple myeloma cell line; experiment: Cell Viability Assay (OPM-2 10 FBS); format: cell-based; conditions: OPM-2 cells, CellTiter-Glo
Outline: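 IC50 from 4-parameter logistic fit of CellTiter-Glo luminescence. 3000 cells/well, 10% FBS medium, serial compound dilutions, 16 h, 37 °C/5% CO2; read 25 min post-reagent.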

[2] = biological target: T1, Mcl-1/Bim interaction, recombinant human Mcl-1 (171-327) (Homo sapiens, UniProt Q07820); experiment: Cell free Mcl-1: Bim Affinity Assay (Mcl-1 HTRF); format: binding
T1 construct: made in house
Outline: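 TR-FRET competition assay with biotinylated human Bim peptide (residues 51-76); reaction plates incubated overnight before reading. IC50 values came from duplicate data fitted to a four-parameter sigmoidal competition curve.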

[3] = Homo sapiens, OPM-2, 16 h, 16 h
[4] = cell free Mcl-1:Bim TR-FRET, recombinant human Mcl-1 (171-327)
[5] = TR-FRET, 0.1 nM Mcl-1 (171-327), 0.05 nM biotin-Bim (51-76)

T1 sequence (Q07820 171-327): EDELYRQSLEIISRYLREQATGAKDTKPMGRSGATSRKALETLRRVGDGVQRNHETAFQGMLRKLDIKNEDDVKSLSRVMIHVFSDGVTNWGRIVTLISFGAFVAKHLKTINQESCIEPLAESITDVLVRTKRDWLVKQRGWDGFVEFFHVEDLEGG

| SMILES | IC50 [1, 3] | IC50 [2, 4] | IC50 ([1]; 16 h) | IC50 [2, 5] | IC50 ([1]; Homo sapiens, OPM-2, 16 h, 16 h incubation) |
| --- | --- | --- | --- | --- | --- |
| C[C@@H]1[C@@H](C)C/C=C/[C@H](OCCNC2COC2)[C@@H]2CC[C@H]2CN2C[C@@]3(CCCc4cc(Cl)ccc43)COc3ccc(cc32)C(=O)NS1(=O)=O [Example 522, (1S,3′R,6′R,7′S,8′E,11′5,12′R)-6-chloro-11′,12′-dimethyl-7′-(2-(3-oxetanylamino)ethoxy)-3,4-dihydro-2H,15′H-spiro[naphthalene-1,22′-[20]oxa[13]thia[1,14]diazatetracyclo[14.7.2.0^3,6.0^19,24]pentacosa [8,16,18,24]tetraen]-15′-one 13′,13′-dioxide 2,2,2-trifluoroacetic Acid] | 152 nM | 0.284 nM |  |  |  |
| C[C@@H]1[C@@H](C)C/C=C\[C@H](OCCN2CCOCC2)[C@@H]2CC[C@H]2CN2C[C@@]3(CCCc4cc(Cl)ccc43)COc3ccc(cc32)C(=O)NS1(=O)=O [Example 724, (1S,3′R,6′R,7′S,8′Z,11′S,12′R)-6-chloro-11′,12′-dimethyl-7′-(2-(4-morpholinyl)ethoxy)-3,4-dihydro-2H,15′H-spiro[naphthalene-1,22′-[20]oxa[13]thia[1,14]diazatetracyclo[14.7.2.0^3,6.0^19,24]pentacosa [8,16,18,24]tetraen]-15′-one 13′,13′-dioxide] | 420 nM | 0.485 nM |  |  |  |
| CC[C@H]1C/C=C/[C@H](O)[C@@H]2CC[C@H]2CN2C[C@@]3(CCCc4cc(Cl)ccc43)COc3ccc(cc32)C(=O)NS(=O)(=O)N1 (single isomer, unassigned) [Example 685] |  | 2.66 nM | 7180 nM |  |  |
| COCCO[C@H]1/C=C/C[C@H](C)[C@H](COC)S(=O)(=O)NC(=O)c2ccc3c(c2)N(C[C@@H]2CC[C@H]21)C[C@@]1(CCCc2cc(Cl)ccc21)CO3 (single isomer, unassigned) [Example 464] |  |  | 650 nM | 1.49 nM |  |
| CN(C)C(=O)C[C@@H]1CC/C=C/[C@H](O)[C@@H]2CC[C@H]2CN2C[C@@]3(CCCc4cc(Cl)ccc43)COc3ccc(cc32)C(=O)NS1(=O)=O (single isomer, unassigned) [Example 621] |  | 0.225 nM | 3670 nM |  |  |
| CC[C@@H]1CC/C=C/[C@H](OCc2nnc(C)o2)[C@@H]2CC[C@H]2CN2C[C@@]3(CCCc4cc(Cl)ccc43)COc3ccc(cc32)C(=O)NS1(=O)=O [Example 966, (1S,3′R,6′R,7′S,8′E,12′R)-6-chloro-12′-ethyl-7′-((5-methyl-1,3,4-oxadiazol-2-yl)methoxy)-3,4-dihydro-2H,15′H-spiro[naphthalene-1,22′-[20]oxa[13]thia[1,14]diazatetracyclo[14.7.2.0^3,6.0^19,24]pentacosa [8,16,18,24]tetraen]-15′-one 13′,13′-dioxide] |  |  |  | 0.349 nM | 754 nM |
| CO[C@@H]1/C=C/[C@H](O)[C@@H]2CC[C@H]2CN2C[C@@]3(CCCc4cc(Cl)ccc43)COc3ccc(cc32)C(=O)NS(=O)(=O)[C@H](C)C1 (single isomer, unassigned) [Example 489] |  | 0.666 nM | 1220 nM |  |  |
| COCCO[C@H]1/C=C/C[C@H](C)[C@H](c2ccccc2)S(=O)(=O)NC(=O)c2ccc3c(c2)N(C[C@@H]2CC[C@H]21)C[C@@]1(CCCc2cc(Cl)ccc21)CO3 (single isomer, unassigned) [Example 670] |  | 2.48 nM | 1000 nM |  |  |
| COCCCN1[C@@H](C)C/C=C\[C@H](O)[C@@H]2CC[C@H]2CN2C[C@@]3(CCCc4cc(Cl)ccc43)COc3ccc(cc32)C(=O)NS1(=O)=O (single isomer, unassigned) [Example 73] | 1660 nM |  |  | 0.728 nM |  |
| CC[C@H]1[C@H](OC)C/C=C/[C@H](O)[C@@H]2CC[C@H]2CN2C[C@@]3(CCCc4cc(Cl)ccc43)COc3ccc(cc32)C(=O)NS1(=O)=O (single isomer, unassigned) [Example 459] |  |  | 3300 nM | 3.37 nM |  |
| O=C1NS(=O)(=O)N(CC2CCCO2)CCC=CC(O)C2CCC2CN2CC3(CCCc4cc(Cl)ccc43)COc3ccc1cc32 (stereo not shown) [Example 21] | 1080 nM |  |  | 0.806 nM |  |

— US12091425B2 (AMGEN INC., priority 2016, dated 2024)
